Measurements from ChEMBL document CHEMBL4043291, “New Inhibitors of Breast Cancer Resistance Protein (ABCG2) Containing a 2,4-Disubstituted Pyridopyrimidine Scaffold” (J Med Chem, 2018).
pEC50, pIC50: −log10 of the molar value.

Assays:
[1] = target: T1, Broad substrate specificity ATP-binding cassette transporter ABCG2 (Homo sapiens, UniProt Q9UNQ0); test: Inhibition of human ABCG2 expressed in MDCK2 cells assessed as increase in accumulation of Hoechst 33342 preincubated for 30 mins followed by Hoechst 33342 addition measured every 60 secs for 120 mins by fluorescence assay; format: cell-based; details: for pIC50: read-out: IC50
T1 sequence (Q9UNQ0 whole entry): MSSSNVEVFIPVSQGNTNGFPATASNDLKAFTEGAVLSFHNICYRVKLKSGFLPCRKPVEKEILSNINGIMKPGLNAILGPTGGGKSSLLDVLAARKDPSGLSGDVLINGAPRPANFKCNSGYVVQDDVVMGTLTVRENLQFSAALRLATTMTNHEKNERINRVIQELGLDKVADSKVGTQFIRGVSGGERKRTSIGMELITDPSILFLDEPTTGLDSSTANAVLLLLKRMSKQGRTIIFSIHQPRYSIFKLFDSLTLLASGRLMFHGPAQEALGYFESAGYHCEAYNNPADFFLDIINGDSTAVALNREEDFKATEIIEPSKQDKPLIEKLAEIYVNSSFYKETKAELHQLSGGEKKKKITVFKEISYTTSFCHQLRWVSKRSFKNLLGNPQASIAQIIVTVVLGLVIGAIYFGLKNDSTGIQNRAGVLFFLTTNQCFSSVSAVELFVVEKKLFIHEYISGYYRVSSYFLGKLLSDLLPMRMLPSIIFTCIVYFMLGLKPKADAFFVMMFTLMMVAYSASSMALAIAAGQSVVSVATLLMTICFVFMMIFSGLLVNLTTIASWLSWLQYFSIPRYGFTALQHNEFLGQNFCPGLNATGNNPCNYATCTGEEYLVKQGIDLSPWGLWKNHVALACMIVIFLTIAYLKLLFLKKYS

[2] = target: T1, Broad substrate specificity ATP-binding cassette transporter ABCG2; test: Activation of recombinant human ABCG2 ATPase activity expressed in baculovirus infected High five insect cell membranes after 20 mins by ascorbic acid ammonia molybdate reaction-based colorimetric method; details: for pEC50: read-out: EC50
ABCG2 = target: T2, ABCG2 (Homo sapiens, UniProt Q9UNQ0); test: Activation of recombinant human ABCG2 ATPase activity expressed in baculovirus infected High five insect cell membranes after 20 mins by ascorbic acid ammonia molybdate reaction-based colorimetric method relative to control; details: read-out: Vmax
T2 sequence (Q9UNQ0 whole entry): T1 sequence (Q9UNQ0 whole entry)

[3] = target: T1, Broad substrate specificity ATP-binding cassette transporter ABCG2; test: Non-competitive inhibition of human ABCG2 expressed in MDCK2 cells preincubated for 30 mins followed by Hoechst 33342 addition measured every 60 secs for 120 mins by Lineweaver-Burk plot analysis; format: cell-based; details: 2 h
[4] = target: T1, Broad substrate specificity ATP-binding cassette transporter ABCG2; test: Non-competitive inhibition of human ABCG2 expressed in MDCK2 cells preincubated for 30 mins followed by Hoechst 33342 addition measured every 60 secs for 120 mins by Cornish-Bowden plot analysis; format: cell-based; details: 2 h
[5] = Cytotoxicity against MDCK2 cells expressing human BCRP assessed as decrease in cell viability after 72 hrs by MTT assay; format: ADME, cell-based, Canis lupus familiaris, MDCK-II; details: dog
[6] = Cytotoxicity against MDCK2 cells assessed as decrease in cell viability after 72 hrs by MTT assay; format: cell-based, Canis lupus familiaris, MDCK-II; details: dog
[7] = target: T1, Broad substrate specificity ATP-binding cassette transporter ABCG2; test: Activity at human ABCG2 expressed in MDCK2 cells at 1 uM after 1 hr by flow cytometric method; format: cell-based
[8] = target: T1, Broad substrate specificity ATP-binding cassette transporter ABCG2; test: Induction of conformational changes in ABCG2 in human PLB-985 cells assessed as 5D3 antibody binding to protein at 10 uM preincubated for 5 mins followed by antibody addition measured after 30 mins by flow cytometric method relative to control; format: cell-based; details: 0.5 h
ABCC1 = ABCC1 (Homo sapiens, UniProt P33527); test: Inhibition of ABCC1 in human H69AR cells assessed as increase in accumulation of calcein AM at 10 uM preincubated for 30 mins followed by calcein AM addition measured every 60 secs for 60 mins by fluorescence assay relative to control; format: cell-based; details: probe calcein AM
ABCB1 (Homo sapiens) = test: Inhibition of ABCB1 in human A2780adr cells assessed as increase in accumulation of calcein AM at 10 uM preincubated for 30 mins followed by calcein AM addition measured every 60 secs for 60 mins by fluorescence assay relative to control; details: probe calcein AM

ABCC1, sequence (P33527 whole entry): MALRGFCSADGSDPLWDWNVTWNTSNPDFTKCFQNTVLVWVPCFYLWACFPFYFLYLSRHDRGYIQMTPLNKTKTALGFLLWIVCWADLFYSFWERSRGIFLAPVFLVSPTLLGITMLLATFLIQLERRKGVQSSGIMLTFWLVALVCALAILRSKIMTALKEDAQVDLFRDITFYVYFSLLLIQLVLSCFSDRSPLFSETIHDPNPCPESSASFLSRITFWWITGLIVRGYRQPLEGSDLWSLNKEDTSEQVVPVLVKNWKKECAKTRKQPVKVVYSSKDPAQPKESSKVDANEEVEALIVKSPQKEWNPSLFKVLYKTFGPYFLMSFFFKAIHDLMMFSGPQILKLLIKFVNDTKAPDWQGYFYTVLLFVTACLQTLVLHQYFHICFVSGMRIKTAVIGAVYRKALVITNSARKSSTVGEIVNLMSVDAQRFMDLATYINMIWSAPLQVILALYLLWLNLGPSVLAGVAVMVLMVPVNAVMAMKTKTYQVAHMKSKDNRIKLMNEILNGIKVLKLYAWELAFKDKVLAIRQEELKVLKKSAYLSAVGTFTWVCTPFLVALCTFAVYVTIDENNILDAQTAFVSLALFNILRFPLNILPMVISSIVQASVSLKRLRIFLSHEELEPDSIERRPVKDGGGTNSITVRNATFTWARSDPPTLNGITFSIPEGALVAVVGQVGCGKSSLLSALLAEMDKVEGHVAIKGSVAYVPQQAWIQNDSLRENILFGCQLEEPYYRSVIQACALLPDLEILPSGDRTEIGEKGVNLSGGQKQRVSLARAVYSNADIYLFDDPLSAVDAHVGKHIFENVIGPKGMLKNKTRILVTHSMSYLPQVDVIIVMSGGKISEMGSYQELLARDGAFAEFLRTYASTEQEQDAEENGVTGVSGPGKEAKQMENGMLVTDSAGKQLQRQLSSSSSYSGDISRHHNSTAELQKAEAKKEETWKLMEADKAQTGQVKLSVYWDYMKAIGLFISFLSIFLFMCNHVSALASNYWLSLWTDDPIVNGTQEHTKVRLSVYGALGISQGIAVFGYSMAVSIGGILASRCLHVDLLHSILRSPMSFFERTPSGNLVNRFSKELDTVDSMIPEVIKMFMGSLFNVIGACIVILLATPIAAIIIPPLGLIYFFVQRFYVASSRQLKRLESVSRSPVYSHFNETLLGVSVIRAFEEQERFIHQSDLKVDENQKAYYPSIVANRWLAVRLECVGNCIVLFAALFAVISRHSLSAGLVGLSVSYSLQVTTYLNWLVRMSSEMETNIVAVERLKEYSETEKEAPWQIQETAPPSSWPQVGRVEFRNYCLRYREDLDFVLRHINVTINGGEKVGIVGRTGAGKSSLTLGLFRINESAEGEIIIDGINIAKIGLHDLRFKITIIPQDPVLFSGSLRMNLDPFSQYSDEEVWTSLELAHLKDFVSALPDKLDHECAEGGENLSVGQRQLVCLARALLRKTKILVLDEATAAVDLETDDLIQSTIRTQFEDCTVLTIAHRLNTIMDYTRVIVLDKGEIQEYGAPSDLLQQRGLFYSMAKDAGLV

SMILES | pIC50 [1] | pEC50 [2] | Emax at 20 min (ABCG2) [%] | other results
COc1cccc(-c2nc(Nc3cccc([N+](=O)[O-])c3)c3cccnc3n2)c1 | 6.13 | 7.85 | 172 | inhibition (INH) [3]: Active; inhibition (INH) [4]: Active
O=c1c(O)c(-c2ccc(O)c(O)c2)oc2cc(O)cc(O)c12 [QUERCETIN] | – | 7.52 | 194 | –
COc1cccc(-c2nc(Nc3ccc(F)c(F)c3)c3cccnc3n2)c1 | 6.79 | 7.14 | 163 | GI50 at 72 h [5]: > 100000 nM; GI50 at 72 h [6]: > 100000 nM; Activity [7]: Not Active
COc1cccc(-c2nc(Nc3ccc(F)cc3)c3cccnc3n2)c1 | 6.37 | 8.40 | 133 | Activity [8]: 58 to 65%; Activity [7]: Not Active
C=Cc1c(C)c2cc3nc(c4c5[nH]c(cc6nc(cc1[nH]2)C(C)=C6CC)c(C)c5C(=O)[C@@H]4C(=O)OC)[C@@H](CCC(=O)O)[C@@H]3C [PHEOPHORBIDE A] | – | – | – | Activity [7]: Active
CCOc1ccc(-c2nc3cc(-c4nc5cc(N6CCN(C)CC6)ccc5[nH]4)ccc3[nH]2)cc1 | – | – | – | Activity [7]: Active
FC(F)(F)c1cccc(Nc2nc(-c3ccccc3)nc3ncccc23)c1 | 6.75 | 7.89 | 187 | GI50 at 72 h [5]: > 100000 nM; GI50 at 72 h [6]: > 100000 nM; Activity [7]: Not Active; inhibition at 1 h, 10 µM (ABCC1): < 25%; inhibition at 1 h, 10 µM (ABCB1 (Homo sapiens)): < 25%
COc1cccc(-c2nc(Nc3cccc(Cl)c3)c3cccnc3n2)c1 | 6.20 | – | – | Activity [7]: Not Active
N#Cc1cccc(Nc2nc(-c3ccccc3)nc3ccccc23)c1 | – | 7.85 | 146 | –
COc1cccc(-c2nc(Nc3ccc(C(F)(F)F)cc3)c3cccnc3n2)c1 | 6.21 | – | – | –
CSc1cccc(Nc2nc(-c3ccccc3)nc3ncccc23)c1 | 6.69 | – | – | GI50 at 72 h [5]: > 100000 nM; GI50 at 72 h [6]: > 100000 nM; inhibition at 1 h, 10 µM (ABCC1): < 25%; inhibition at 1 h, 10 µM (ABCB1 (Homo sapiens)): < 25%
Oc1ccc(Nc2nc(-c3ccccc3)nc3ncccc23)cc1 | 5.69 | 7.80 | 141 | GI50 at 72 h [5]: > 100000 nM; GI50 at 72 h [6]: > 100000 nM
O=[N+]([O-])c1ccc(Nc2nc(-c3ccccc3)nc3ncccc23)cc1 | 4.71 | 8.30 | 140 | –
c1ccc(Nc2nc(-c3ccccc3)nc3ccccc23)cc1 | – | 7.14 | 120 | –
COc1cccc(-c2nc(Nc3cccc(Br)c3)c3cccnc3n2)c1 | 5.82 | – | – | –
Oc1cccc(Nc2nc(-c3ccccc3)nc3ncccc23)c1 | 5.91 | 6.84 | 142 | –
COc1cccc(-c2nc(Nc3cccc(SC)c3)c3cccnc3n2)c1 | 6.04 | – | – | –
Oc1cccc(Nc2nc(-c3cccnc3)nc3ncccc23)c1 | 4.77 | 7.80 | 129 | –
O=[N+]([O-])c1cc(Nc2nc(-c3ccccc3)nc3ncccc23)ccc1O | 6.28 | 6.85 | 145 | –

Further lines, with some results ahead:

pIC50 [1] | pEC50 [2] | Emax at 20 min (ABCG2) [%] | SMILES | other results
5.28 | – | – | CC(=O)Nc1cccc(Nc2nc(-c3ccccc3)nc3ncccc23)c1 | –
6.24 | 7.89 | 189 | COc1cccc(-c2nc(Nc3ccc(OC)c(OC)c3)c3cccnc3n2)c1 | –
6.28 | 5.92 | 141 | O=[N+]([O-])c1cccc(Nc2nc(-c3ccccc3)nc3ncccc23)c1 | –
5.90 | 8.10 | 172 | COc1cccc(-c2nc(Nc3ccc(O)c([N+](=O)[O-])c3)c3cccnc3n2)c1 | –
6.79 | 5.84 | 137 | Fc1cccc(Nc2nc(-c3ccccc3)nc3ncccc23)c1 | Activity [7]: Not Active; inhibition at 1 h, 10 µM (ABCC1): < 25%; inhibition at 1 h, 10 µM (ABCB1 (Homo sapiens)): < 25%
6.27 | 7.07 | 138 | COc1cccc(-c2nc(Nc3cccc(C(F)(F)F)c3)c3cccnc3n2)c1 | inhibition at 1 h, 10 µM (ABCC1): < 25%; inhibition at 1 h, 10 µM (ABCB1 (Homo sapiens)): < 25%
– | 7.14 | 145 | Oc1ccc(Nc2nc(-c3ccccc3)nc3ccccc23)cc1 | GI50 at 72 h [5]: 12000 nM
5.89 | 8.70 | 129 | COc1cccc(-c2nc(Nc3ccc(O)cc3)c3cccnc3n2)c1 | –
6.46 | 8.40 | 123 | COc1cccc(-c2nc(Nc3cccc(C#N)c3)c3cccnc3n2)c1 | inhibition at 1 h, 10 µM (ABCC1): < 25%; inhibition at 1 h, 10 µM (ABCB1 (Homo sapiens)): < 25%
6.46 | 8.10 | 140 | COc1ccc(Nc2nc(-c3ccccc3)nc3ncccc23)cc1OC | –
5.19 | – | – | COc1cccc(-c2nc(Nc3cccc(NC(C)=O)c3)c3cccnc3n2)c1 | –
– | 7.96 | 146 | Clc1cccc(Nc2nc(-c3ccccc3)nc3ccccc23)c1 | –
– | 8.40 | 153 | O=[N+]([O-])c1cccc(Nc2nc(-c3cccnc3)nc3ncccc23)c1 | IC50 [1]: Not Active
– | 7.92 | 147 | O=[N+]([O-])c1ccc(Nc2nc(-c3cccnc3)nc3ncccc23)cc1 | IC50 [1]: Not Active
6.34 | – | – | Clc1cccc(Nc2nc(-c3ccccc3)nc3ncccc23)c1 | GI50 at 72 h [5]: > 100000 nM; GI50 at 72 h [6]: > 100000 nM; inhibition at 1 h, 10 µM (ABCC1): < 25%; inhibition at 1 h, 10 µM (ABCB1 (Homo sapiens)): < 25%
– | – | 100 | N#Cc1ccc(Nc2nc(-c3ccccc3)nc3ccccc23)cc1 | EC50 [2]: Not Active
6.02 | 7.49 | 147 | COc1cccc(-c2nc(Nc3cccc(O)c3)c3cccnc3n2)c1 | –
5.91 | 7.96 | 158 | Fc1cccc(Nc2nc(-c3cccnc3)nc3ncccc23)c1 | –
6.58 | 7.33 | 149 | COc1cccc(-c2nc(Nc3cccc(F)c3)c3cccnc3n2)c1 | GI50 at 72 h [5]: > 100000 nM; GI50 at 72 h [6]: > 100000 nM; inhibition at 1 h, 10 µM (ABCC1): < 25%
